# According to US20210369812A1, “OSTEOINDUCTIVE PEPTIDES, COMPOSITIONS, IMPLANTS, AND METHODS OF USE” (The Board of Regents of the University of Oklahoma, priority 2018, published 2021):
# Entries after “also recorded” stand apart in the source; their conditions may differ.
# Columns and labels:
# BMPR1A = molecular target: T1, BMPR1A (Homo sapiens, UniProt P36894); experiment: Enzyme-linked immune sorbent assay for receptor binding (BMPR1A); conditions: peptide on p3 of M13 phage; absorbance 450 nm; n=4; vs wild type phage
# T1 construct: purchased G&P Biosciences
# T1 sequence (P36894 24-152 limits assumed): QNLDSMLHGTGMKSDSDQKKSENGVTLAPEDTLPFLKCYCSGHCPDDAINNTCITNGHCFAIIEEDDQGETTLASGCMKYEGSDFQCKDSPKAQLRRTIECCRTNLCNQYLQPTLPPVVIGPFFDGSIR
# Description: Groups having the same lowercase letter assigned (above the bar) were not statistically different from each other. Groups having different letters assigned (above the bar) were statistically different from each other. […] The primary antibody was mouse anti-g3p (p8) IgG. The secondary antibody was anti-mouse IgG conjugated with horseradish peroxidase. The substrate, 3,3′,5,5′-Tetramethylbenzidine was detected at 450 nm after stopping the reaction with 1 M HCl.
# Blocking buffer (0.1 M NaHCO3 (pH 8.6), 5 mg/ml BSA. Filter sterilized, stored at 4° C.) was prepared. TBS (50 mM Tris-HCl (pH 7.5), 150 mM NaCl, autoclaved, stored at room temperature) was prepared. Separate solutions of the target receptors were then made. For BMPR1A, a 10 μg/ml stock solution was made. For BMPR2, a 10 μg/ml solution was also made. Separate wells with n=4 for each different peptide bearing phage group were then coated with one of the receptors. The coating was done by adding 100 μl of the target solution to wells of a 96-well plate followed by swirling until the surface was completely wet. The plates were then allowed to incubate overnight at 4° C. with gentle agitation in a humidified container (a plastic box lined with damp paper towels). Any excess target solution was then removed, and the plate was slapped face-down on a clean paper towel. The wells of the plate were then blocked with 200 μl of blocking buffer for 1 hour at room temperature. […] The blocking buffer was then removed from each plate followed by 5 washes with 200 μl of TBST. Each time the plate was slapped against a clean section of paper towel face-down. […] After a brief pilot test, it should be noted that using 10^10 phage/ml was determined to work best, but other concentrations of virus also worked consistently. […] Then, […] of freshly prepared 3,3′,5,5′-Tetramethylbenzidine (TMB) was added to each well and the absorbance at 370 nm and 652 nm was monitored for 1 hour using an ELISA plate reader. […] The absorbance at 450 nm for each well was then measured.
# [1] = test system: human mesenchymal stem cells (hMSCs); experiment: Live cell binding through immunofluorescence; assay type: cell-based; conditions: 10^12 phages/ml
# Protocol: Human mesenchymal stem cells (hMSCs) were grown to roughly 60% plate coverage in a 48-well tissue culture plate according to the company Lonza's culturing protocols. […] The hMSCs were then blocked with 0.5% BSA (dissolved in cell media) for 1 hour. The cell media for the hMSCs was then replaced with 1 ml of new cell media having of concentration of 10^12 phages/ml. Next, the plates were washed once with 400 μl of phosphate buffered saline (PBS) at a pH of 7.4. The hMSCs were then incubated with Anti-M13 Bacteriophage Coat Protein g8p antibody [RL-ph2] (ab9225) at a 1:1000 dilution in cell media (200 μl per well). The wells were then washed again with PBS (400 μl per wash). Next, the hMSCs were incubated with the secondary antibody, Goat-anti mouse AF-488 (Abcam) for 1 hour (1 ug/ml final concentration of antibody in media). The wells were then washed again with PBS (400 μl per wash). A Hoechst nuclear stain was used to stain the nuclei (PureBlu™ Hoechst 33342 Nuclear Staining Dye #1351304 from BioRad) according to the company's protocol. Cell Mask™ Orange Plasma Membrane Stain was used to stain membranes (CellMask™ Orange Plasma Membrane Stain Catalog number: C10045 from Thermo Fisher Scientific) according to the company's protocol. The phages binding to the cells were then imaged on a Nikon Eclipse Ti fluorescent microscope.
# hMSCs = experiment: qPCR of osteoblast marker genes; assay type: cell-based, human; conditions: 26 days on phage films; normalized to GAPDH; relative to negative control (basal media)
# Protocol: Gene expression was normalized to the reference gene, GAPDH. All fold changes are relative to a negative control (basal media with no peptides or phage) which represents the baseline at zero-fold change. […] All data represent the mean±standard deviation. (*P≤0.05, **P≤0.01, ***P≤0.001).
# hMSCs were seeded (1×10^3 cells per culture plate) on to phage films as well as relevant control plates. The cells were then cultured for 26 days. The cells then were processed with a Power SYBR™ Green Cells-to-CT™ Kit. The number of cells was adjusted to be 5×10^3 cells per lysis reaction. All other parameters were kept the same as the manufacturer's protocol for this kit. The gene expression of osteopontin, osteocalcin, and collagen type 1A were measured as a fold change normalized to the reference gene GAPDH and a negative control (basal media+ cells but no phage) such that the baseline at zero-fold change represents the negative control. For temperature cycling and measuring CT values, a MiniOpticon Real Time PCR System was used.
Sequence,Relative binding strength in ELISA to BMPR1A (BMPR1A),Binding of peptide-bearing phages to live hMSCs [1],"Osteopontin gene expression, fold change (hMSCs)"
SGTQDSMVGWNK (Completely synthesized in the lab - Ph.D.-12 Phage Display Peptide Library Kit (New England Biolabs)),best binders,bound to what appeared to be the same location as the outer membrane; also recorded: demonstrated an ability to bind to the outer membrane,"greater osteopontin production than the wild type, but not greater than the Lonza osteogenic media; also recorded: statistically significant advantage over the wild type phage films"
VHVPLHRGAVSA (Completely synthesized in the lab - Ph.D.-12 Phage Display Peptide Library Kit (New England Biolabs)),best binders,bound to what appeared to be the same location as the outer membrane; also recorded: demonstrated an ability to bind to the outer membrane,greater osteopontin production than the Lonza osteogenic media; also recorded: statistically significant advantage over the wild type phage films; also recorded: statistically significant advantage over the positive control
